“Also recorded” adds a separate entry of the source.
How the values were obtained:
[1] = system: peptide-pulsed C1R-A01; assay: In vitro CTL induction, IFN-gamma ELISPOT assay; type: cell-based, human; settings: CD8-positive T cells from HLA-A*01:01-positive donors stimulated with DCs pulsed with 20 micro-g/ml peptide, target C1R-A01 pulsed vs not pulsed
Description: C1R cells (C1R-A01) that constitutively express HLA-A*01:01 was used as cells for stimulating CTLs. A cDNA encoding the HLA-A*01:01 gene was amplified by PCR and introduced into an expression vector. C1R cells incorporated with HLA-A*01:01 gene expression vector were cultured for two weeks under drug selection with a medium containing G418 (Invitrogen). After diluting G418-resistant C1R cell suspension, the cells were seeded into a 96-well plate, and subjected to selective culture for another 30 days with a medium containing G418. The HLA-A*01:01 expression in C1R cells was verified by flow cytometric analysis.
Monocyte-derived dendritic cells (DCs) were used as the antigen-presenting cell to induce a cytotoxic T lymphocyte (CTL) specific to peptides presented on human leukocyte antigens (HLAs). DCs were prepared in vitro as already reported in the literature (Nakahara S et al., Cancer Res 2003, 63(14): 4112-8). Specifically, peripheral-blood mononuclear cells (PBMCs) collected from healthy volunteers (HLA-A*01:01-positive) with the Ficoll-Paque plus solution (Pharmacia) were seeded into plastic tissue culture dishes (Corning) to allow attachment of monocytes in PBMCs to the dishes. Then, the cells were cultured in the presence of 1000 IU/ml granulocyte macrophage colony-stimulating factor (R&D System) and 1000 IU/ml interleukin (IL)-4 (R&D System) for seven days. As medium, an AIM-V medium (Invitrogen) containing inactivated AB type serum (MP Biomedicals) was used (2% ABS/AIM-V medium). […] Peptide pulsing was performed in the AIM-V medium. These peptide-pulsed DCs were inactivated by X-ray irradiation (20 Gy), and mixed in a 1:20 ratio with autologous CD8-positive T cells obtained by using the CD8 Positive Isolation Kit (Invitrogen) (1.5×10^4 DCs and 3×10^5 CD8-positive T cells), and cultured in a 48-well plate (Corning). The volume of 2% ABS/AIM-V medium was 0.5 ml per 1 well, and IL-7 (R&D System) was added (final concentration: 10 ng/ml) to the well. Two days after the start of culture, IL-2 (Novartis) was added thereto (final concentration: 20 IU/ml). On 7th day of culture and 14th day of culture, CD8-positive T cells were further stimulated with peptide-pulsed DCs. The DCs were prepared before use by the same method as above. On 21st day or thereafter (after the third DC stimulation), IFN-gamma production of CD8-positive T cells against peptide-pulsed C1R-A01 was confirmed by enzyme-linked immunospot (ELISPOT) assay (Tanaka H et al., Br J Cancer 2001, 84(1): 94-9; Umano Y et al., Br J Cancer 2001, 84(8): 1052-7; Uchida N et al., Clin Cancer Res 2004, 10(24): 8577-86; Suda T et al., Cancer Sci 2006, 97(5): 411-9; Watanabe T et al., Cancer Sci 2005, 96(8): 498-506).
(§1) C1R-A01 pulsed with a peptide was prepared as target cells. The IFN-gamma ELISPOT assay and IFN-gamma ELISA were performed according to the procedures recommended by the assay kit manufacturer.

[2] = system: peptide-pulsed C1R-A01; assay: IFN-gamma ELISA of CTL clones established by limiting dilution; type: cell-based, human; settings: CTL clones against peptide-pulsed vs non-pulsed target cells
Description: CTLs were propagated using a method similar to that reported by Riddell et al. (Walter E A et al., N Engl J Med 1995, 333(16): 1038-44; Riddell S R et al., Nat Med 1996, 2(2): 216-23). In a flask for tissue culture (FALCON), the CTLs were cultured in 5% ABS/AIM-V medium (culture solution volume: 25 ml/flask) with two types of human B lymphoblastoid cell lines (5×10^6 cells each) treated with mitomycin C and anti-CD3 antibody (BD biosciences, final concentration: 40 ng/ml). On the next day after the culturing was started, IL-2 was added to the culture (IL-2 final concentration: 120 IU/ml). On days 5, 8, and 11, the medium was changed to 5% ABS/AIM-V medium containing 60 IU/ml IL-2 (IL-2 final concentration: 30 IU/ml) (Tanaka H et al., Br J Cancer 2001, 84(1): 94-9; Umano Y et al., Br J Cancer 2001, 84(8): 1052-7; Uchida N et al., Clin Cancer Res 2004, 10(24): 8577-86; Suda T et al., Cancer Sci 2006, 97(5): 411-9; Watanabe T et al., Cancer Sci 2005, 96(8): 498-506).
After CTLs were induced in vitro, the CTLs were seeded at 1 cell/well or 10 cells/well in a 96-well round-bottomed microplate (Corning). The CTLs were cultured in 5% ABS/AIM-V medium (culture solution volume: […]) with two types of human B lymphoblastoid cell lines (1×10^4 cells each) treated with mitomycin C, anti-CD3 antibody (final concentration: 30 ng/ml), and IL-2 (final concentration: 125 IU/ml). After 10 days, […] of 5% ABS/AIM-V medium containing 500 IU/ml IL-2 was added to the culture.
as §1

[3] = system: COS7 cells expressing CDCA1 and HLA-A*01:01; assay: IFN-gamma production of CTL clone against target cells expressing CDCA1 and HLA-A*01:01; type: cell-based, African green monkey
Description: as §1
The cDNA encoding the CDCA1 or HLA-A*01:01 gene were amplified by PCR. Each PCR amplified product was incorporated into an expression vector. Using Lipofectamine 2000 (Invitrogen), either or both of the CDCA1 gene expression vector and the HLA-A*01:01 gene expression vector were introduced into COS7 cells, an HLA-negative cell line, according to the procedure recommended by the manufacturer. On the next day of the gene introduction, the COS7 cells were separated using Versene (Invitrogen) and used as target cells.

With “ARQEVVEKY (a peptide derived from CDCA1) [SEQ ID NO: 35, CDCA1-derived 9mer peptide, start position 268]” the “Peptide-specific IFN-gamma production (CTL induction)” value ([1]; listed as CDCA1-A01-9-268) was “Peptide-specific IFN-gamma production relative to the control well was observed; also recorded: able to induce CTLs that showed peptide-specific IFN-gamma production”.
In the case of “DSPEKLKNY (a peptide derived from CDCA1) [SEQ ID NO: 34, CDCA1-derived 9mer peptide, start position 246]”, the “Peptide-specific IFN-gamma production (CTL induction)” value ([1]; listed as CDCA1-A01-9-246) is reported as “Peptide-specific IFN-gamma production relative to the control well was observed; also recorded: able to induce CTLs that showed peptide-specific IFN-gamma production”.
With “ETYMEFLWQY (a peptide derived from CDCA1) [SEQ ID NO: 8, CDCA1-derived 10mer peptide, start position 136]” the “Peptide-specific IFN-gamma production of CTL clones” value ([2]; listed as CDCA1-A01-10-136) was “showed peptide-specific IFN-gamma production”, the “IFN-gamma production of CTL clone against target cells” value ([3]; COS7 cells expressing both CDCA1 and HLA-A*01:01) was “showed IFN-gamma production” and the “IFN-gamma production of CTL clone against negative control cells” value ([3]; COS7 cells expressing either CDCA1 or HLA-A*01:01, listed as CDCA1-A01-10-136) was “no significant IFN-gamma production was observed; also recorded: did not show significant IFN-gamma production”. For the same sequence, the “Peptide-specific IFN-gamma production (CTL induction)” value ([1]; listed as CDCA1-A01-10-136) was “Peptide-specific IFN-gamma production relative to the control well was observed; also recorded: able to induce CTLs that showed peptide-specific IFN-gamma production”.
“FREACRETY (a peptide derived from CDCA1) [SEQ ID NO: 33, CDCA1-derived 9mer peptide, start position 130]” was tested, and the “Peptide-specific IFN-gamma production (CTL induction)” value ([1]; listed as CDCA1-A01-9-130) was “Peptide-specific IFN-gamma production relative to the control well was observed; also recorded: able to induce CTLs that showed peptide-specific IFN-gamma production”.
For “IYMRALQIVY (a peptide derived from CDCA1) [SEQ ID NO: 13, CDCA1-derived 10mer peptide, start position 48]”, the “Peptide-specific IFN-gamma production of CTL clones” value ([2]; listed as CDCA1-A01-10-48) was “showed peptide-specific IFN-gamma production” and the “Peptide-specific IFN-gamma production (CTL induction)” value ([1]; listed as CDCA1-A01-10-48) was “Peptide-specific IFN-gamma production relative to the control well was observed; also recorded: able to induce CTLs that showed peptide-specific IFN-gamma production”.
“MMPVNSEVMY (a peptide derived from CDCA1) [SEQ ID NO: 9, CDCA1-derived 10mer peptide, start position 66]” was tested, and the “Peptide-specific IFN-gamma production (CTL induction)” value ([1]; listed as CDCA1-A01-10-66) was “No IFN-gamma production; also recorded: peptide-specific IFN-gamma production was not observed”.
With “QLVQLYQK (QLEVQLYQK; a peptide derived from CDCA1) [SEQ ID NO: 25, CDCA1-derived 9mer peptide, start position 290]” the “Peptide-specific IFN-gamma production (CTL induction)” value ([1]; listed as CDCA1-A01-9-290) was “Peptide-specific IFN-gamma production relative to the control well was observed; also recorded: able to induce CTLs that showed peptide-specific IFN-gamma production”.
In the case of “SCQLEVQLY (a peptide derived from CDCA1) [SEQ ID NO: 37, CDCA1-derived 9mer peptide, start position 288]”, the “Peptide-specific IFN-gamma production (CTL induction)” value ([1]; listed as CDCA1-A01-9-288) is reported as “Peptide-specific IFN-gamma production relative to the control well was observed; also recorded: able to induce CTLs that showed peptide-specific IFN-gamma production”.
“VYGIRLEHFY (a peptide derived from CDCA1) [SEQ ID NO: 10, CDCA1-derived 10mer peptide, start position 56]” was tested, and the “Peptide-specific IFN-gamma production of CTL clones” value ([2]; listed as CDCA1-A01-10-56) was “showed peptide-specific IFN-gamma production” and the “Peptide-specific IFN-gamma production (CTL induction)” value ([1]; listed as CDCA1-A01-10-56) was “Peptide-specific IFN-gamma production relative to the control well was observed; also recorded: able to induce CTLs that showed peptide-specific IFN-gamma production”.
“YMEFLWQY (a peptide derived from CDCA1) [SEQ ID NO: 1, CDCA1-derived 8mer peptide, start position 138]” was tested, and the “Peptide-specific IFN-gamma production (CTL induction)” value ([1]; listed as CDCA1-A01-8-138) was “Peptide-specific IFN-gamma production relative to the control well was observed; also recorded: able to induce CTLs that showed peptide-specific IFN-gamma production”.
